In the NIST ThermoML archive (doi:10.1016/j.fluid.2015.10.044):
Numbers after ± are expanded uncertainties.

Conditions: Pendant drop shape

SMILES	surface tension liquid-gas (307.9 K) [mN/m]	surface tension liquid-gas (338.5 K) [mN/m]	surface tension liquid-gas (318.1 K) [mN/m]	surface tension liquid-gas (342.9 K) [mN/m]	surface tension liquid-gas (318 K) [mN/m]	surface tension liquid-gas (328 K) [mN/m]	surface tension liquid-gas (298.1 K) [mN/m]	surface tension liquid-gas (343 K) [mN/m]	also measured
CCCCCCn1cc[n+](C)c1.N#CN=C=[N-] [1-hexyl-3-methylimidazolium dicyanamide]	42.2 ± 0.6	40.5 ± 0.6	–	–	–	–	–	–	surface tension liquid-gas (298 K): 43 ± 0.6 mN/m; surface tension liquid-gas (318.4 K): 41.6 ± 0.6 mN/m; surface tension liquid-gas (328.2 K): 41 ± 0.6 mN/m; surface tension liquid-gas (342.7 K): 40.2 ± 0.6 mN/m
CCCCn1cc[n+](C)c1.N#CN=C=[N-] [1-butyl-3-methylimidazolium dicyanamide]	50.3 ± 0.7	–	49.7 ± 0.7	47.5 ± 0.7	–	–	–	–	surface tension liquid-gas (298.4 K): 50.6 ± 0.7 mN/m; surface tension liquid-gas (328.4 K): 48.6 ± 0.7 mN/m; surface tension liquid-gas (339 K): 48.1 ± 0.7 mN/m
CCCCCCn1cc[n+](C)c1.N#C[B-](C#N)(C#N)C#N [1-hexyl-3-methylimidazolium tetracyanoborate]	–	38.4 ± 0.6	–	38.2 ± 0.6	40 ± 0.6	39.2 ± 0.6	–	–	surface tension liquid-gas (298.6 K): 41.5 ± 0.6 mN/m; surface tension liquid-gas (308.4 K): 40.8 ± 0.6 mN/m
CCn1cc[n+](C)c1.N#C[B-](C#N)(C#N)C#N [1-ethyl-3-methylimidazolium tetracyanoborate]	–	–	–	–	47.4 ± 0.7	–	49.1 ± 0.7	45.4 ± 0.7	surface tension liquid-gas (307.8 K): 48.3 ± 0.7 mN/m; surface tension liquid-gas (328.7 K): 46.6 ± 0.7 mN/m; surface tension liquid-gas (338.8 K): 45.8 ± 0.7 mN/m
CCn1cc[n+](C)c1.N#C[C-](C#N)C#N [1-ethyl-3-methyl-1H-imidazolium tricyanomethanide]	–	–	–	–	–	49.1 ± 0.7	–	47.9 ± 0.7	surface tension liquid-gas (298.3 K): 51.1 ± 0.7 mN/m; surface tension liquid-gas (308.1 K): 50.7 ± 0.7 mN/m; surface tension liquid-gas (317.9 K): 49.9 ± 0.7 mN/m; surface tension liquid-gas (338.9 K): 48.5 ± 0.7 mN/m
CCCCn1cc[n+](C)c1.N#C[S-] [1-butyl-3-methylimidazolium thiocyanate]	–	41.9 ± 0.6	43 ± 0.6	41.6 ± 0.6	–	–	44.6 ± 0.7	–	surface tension liquid-gas (308.2 K): 43.5 ± 0.7 mN/m; surface tension liquid-gas (328.3 K): 42.4 ± 0.6 mN/m
